How the values were obtained:
Assay in all cases: MIC, DST agar + 10% horse blood
Format in all cases: cell-based
[1] = test system: Serratia marcescens US20; conditions: Serratia marcescens US20; DST agar + 10% horse blood; inoculum 0.001 ml of a 10^-2 dilution for G + ve bacteria or a 10^-4 dilution for G - ve organisms; read-out: MIC Agar
Excerpt: (§1) The ninimum inhibitory concentrations (MIC) cf this compound required to inhibit the growth of various bacteria are tabulated balow: […]

[2] = test system: Pseudomonas aeruginosa A; conditions: Pseudomonas aeruginosa A; DST agar + 10% horse blood; inoculum 0.001 ml of a 10^-2 dilution for G + ve bacteria or a 10^-4 dilution for G - ve organisms; read-out: MIC Agar
Excerpt: as §1

[3] = test system: Shigella sonnei MB 11967; conditions: MB11967, inoculum 0.001 ml of a 10^-2 dilution for G + ve bacteria or a 10^-4 dilution for G - ve organisms
Excerpt: as §1

[4] = test system: Streptococcus pyogenes CN10; conditions: Streptococcus pyogenes CN10; DST agar + 10% horse blood; inoculum 0.001 ml of a 10^-2 dilution for G + ve bacteria or a 10^-4 dilution for G - ve organisms; read-out: MIC Agar
Excerpt: as §1

[5] = test system: Bacillus subtilis A; conditions: Bacillus subtilis A; DST agar + 10% horse blood; inoculum 0.001 ml of a 10^-2 dilution for G + ve bacteria or a 10^-4 dilution for G - ve organisms; read-out: MIC Agar
Excerpt: as §1

[6] = test system: Escherichia coli 0111; conditions: Escherichia coli 0111, inoculum 0.001 ml of a 10^-2 dilution for G + ve bacteria or a 10^-4 dilution for G - ve organisms
Excerpt: as §1

[7] = test system: Proteus rettgeri WM16; conditions: Providencia rettgeri; Proteus rettgeri WM16; DST agar + 10% horse blood; inoculum 0.001 ml of a 10^-2 dilution for G + ve bacteria or a 10^-4 dilution for G - ve organisms; read-out: MIC Agar
Excerpt: as §1

[8] = test system: Streptococcus faecalis I; conditions: Enterococcus faecalis; Streptococcus faecalis I; DST agar + 10% horse blood; inoculum 0.001 ml of a 10^-2 dilution for G + ve bacteria or a 10^-4 dilution for G - ve organisms; read-out: MIC Agar
Excerpt: as §1

[9] = test system: Klebsiella aerogenes A; conditions: Klebsiella aerogenes A; DST agar + 10% horse blood; inoculum 0.001 ml of a 10^-2 dilution for G + ve bacteria or a 10^-4 dilution for G - ve organisms; read-out: MIC Agar
Excerpt: as §1

[10] = test system: Staphylococcus aureus Oxford; conditions: Staphylococcus aureus Oxford; DST agar + 10% horse blood; inoculum 0.001 ml of a 10^-2 dilution for G + ve bacteria or a 10^-4 dilution for G - ve organisms; read-out: MIC Agar
Excerpt: as §1

[11] = test system: Citrobacter freundii E8; conditions: Citrobacter freundii E8; DST agar + 10% horse blood; inoculum 0.001 ml of a 10^-2 dilution for G + ve bacteria or a 10^-4 dilution for G - ve organisms; read-out: MIC Agar
Excerpt: as §1

[12] = test system: Staphylococcus aureus 1517; conditions: Staphylococcus aureus 1517; DST agar + 10% horse blood; inoculum 0.001 ml of a 10^-2 dilution for G + ve bacteria or a 10^-4 dilution for G - ve organisms; read-out: MIC Agar
Excerpt: as §1

[13] = test system: Enterobacter cloacae N1; conditions: Enterobacter cloacae N1; DST agar + 10% horse blood; inoculum 0.001 ml of a 10^-2 dilution for G + ve bacteria or a 10^-4 dilution for G - ve organisms; read-out: MIC Agar
Excerpt: as §1

[14] = test system: Staphylococcus aureus Russell; conditions: Staphylococcus aureus Russell; DST agar + 10% horse blood; inoculum 0.001 ml of a 10^-2 dilution for G + ve bacteria or a 10^-4 dilution for G - ve organisms; read-out: MIC Agar
Excerpt: as §1

[15] = test system: Proteus morganii I580; conditions: Morganella morganii; Proteus morganii I580; DST agar + 10% horse blood; inoculum 0.001 ml of a 10^-2 dilution for G + ve bacteria or a 10^-4 dilution for G - ve organisms; read-out: MIC Agar
Excerpt: as §1

[16] = test system: Escherichia coli JT 39; conditions: JT39; Escherichia coli JT 39; DST agar + 10% horse blood; inoculum 0.001 ml of a 10^-2 dilution for G + ve bacteria or a 10^-4 dilution for G - ve organisms; read-out: MIC Agar
Excerpt: as §1

[17] = test system: Salmonella typhimurium CT10; conditions: Salmonella enterica; Salmonella typhimurium CT10; DST agar + 10% horse blood; inoculum 0.001 ml of a 10^-2 dilution for G + ve bacteria or a 10^-4 dilution for G - ve organisms; read-out: MIC Agar
Excerpt: as §1

[18] = test system: E. coli ESS; conditions: Escherichia coli, inoculum 0.001 ml of a 10^-2 dilution for G + ve bacteria or a 10^-4 dilution for G - ve organisms
Excerpt: as §1

[19] = test system: Proteus mirabilis C977; conditions: Proteus mirabilis C977; DST agar + 10% horse blood; inoculum 0.001 ml of a 10^-2 dilution for G + ve bacteria or a 10^-4 dilution for G - ve organisms; read-out: MIC Agar
Excerpt: as §1

[20] = test system: Proteus vulgaris W091; conditions: Proteus vulgaris W091; DST agar + 10% horse blood; inoculum 0.001 ml of a 10^-2 dilution for G + ve bacteria or a 10^-4 dilution for G - ve organisms; read-out: MIC Agar
Excerpt: as §1

[21] = test system: Streptococcus pneumoniae CN33; conditions: Streptococcus pneumoniae CN33; DST agar + 10% horse blood; inoculum 0.001 ml of a 10^-2 dilution for G + ve bacteria or a 10^-4 dilution for G - ve organisms; read-out: MIC Agar
Excerpt: as §1

Row | SMILES | MIC [1] | MIC [2] | MIC [3] | MIC [4] | MIC [5] | MIC [6] | MIC [7] | MIC [8] | MIC [9] | MIC [10] | MIC [11] | MIC [12] | MIC [13] | MIC [14] | MIC [15] | MIC [16] | MIC [17] | MIC [18] | MIC [19] | MIC [20] | further results
1 | O=C(O)C1=C(CO)SC2CC(=O)N12 (stereo not drawn) [compound 19, Sodium 2-Hydroxymethyl penem-3-carboxylate] | 10 µg/mL | 50 µg/mL | 10 µg/mL | 1 µg/mL | 2.5 µg/mL | 10 µg/mL | 50 µg/mL | 100 µg/mL | 10 µg/mL | 2.5 µg/mL | 10 µg/mL | 25 µg/mL | 50 µg/mL | 2.5 µg/mL | 25 µg/mL | 10 µg/mL | 10 µg/mL | 10 µg/mL | 25 µg/mL | 50 µg/mL | MIC [21]: 1 µg/mL
2 | CC(=O)OCC1=C(C(=O)O)N2C(=O)CC2S1 (stereo not drawn) [compound 21, Sodium 2-Acetoxymethyl penem-3-carboxylate] | 25 µg/mL | > 100 µg/mL | 50 µg/mL | 2.5 µg/mL | 2.5 µg/mL | 25 µg/mL | 50 µg/mL | 100 µg/mL | 10 µg/mL | 10 µg/mL | 10 µg/mL | 50 µg/mL | 100 µg/mL | 10 µg/mL | 10 µg/mL | 50 µg/mL | 25 µg/mL | 10 µg/mL | 10 µg/mL | 50 µg/mL | MIC [21]: 0.5 µg/mL

Source: EP0013067A1, “Bicyclic beta-lactam antibacterial agents, their use in pharmaceutical compositions, processes for their preparation and intermediates for use in such processes” (BEECHAM GROUP PLC, priority 1978, dated 1980)
